From patent US11684581B2, “Drug and layered silicate composite with improved oral bioavailability, oral pharmacological composition containing the composite and method for producing the composite” (KOREA INSTITUTE OF GEOSCIENCE AND MINERAL RESOURCES, priority 2018, dated 2023)
In brackets after ≈: the same amount, converted by molar mass.

Key:
[1] = cited from earlier work
[2] = Drug release (eruption) experiment in eruption solution, HPLC; format: physicochemical; details: 50 rpm
Protocol: Drug release experiments were conducted to confirm the release of the drug from the bentonite based on the surrounding environment type. Specifically, the sorafenib 800 μg and the bentonite composite produced under the process condition of Present Example 7 containing 800 μg of sorafenib were dispersed in 40 ml of an eruption solution respectively to form two dispersions. The, each dispersion was shaken at 37° C. at 50 rpm to effect eruption.
The eruption solution used in this experiment was embodied as each of a solution of 0.1 N HCl in water at pH 1.2 and 50 mM phosphate buffer at pH 7.4. Further, 0.5% (v/v) Tween 80 (Polyoxyethyelene Sorbitan Monooleate) was added to the eruption solution to dissolve the sorafenib sufficiently.
Then, the eruption solution was collected based on a time schedule by 0.4 mL, filtered and analyzed by a high performance liquid chromatography.

[3] = Solubility of sorafenib in mixed solvent (acetonitrile / 1 N hydrochloric acid / dimethyl sulfoxide); format: physicochemical; details: aqueous with cosolvent or surfactant or cyclodextrin; 15% acetonitrile, 83% 1 N hydrochloric acid, 2% dimethyl sulfoxide; read-out: solubility of sorafenib (dissolved concentration)
Protocol: In one example, the solubility of sorafenib when the ratio between acetonitrile and 1 N hydrochloric acid was adjusted while the dimethyl sulfoxide ratio in the total mixed solvent was fixed at 2% was measured. As a result, we dissolved the sorafenib at a concentration of 0.5 mg/mL while at a concentration of 15% acetonitrile and 83% of 1 N hydrochloric acid.

[4] = In vivo pharmacokinetics analysis after oral administration; details: rat, 10 mg/kg based on sorafenib
Protocol: In order to evaluate the absorption and disappearance rate of the drug during oral administration, a in vivo pharmacokinetics analysis was performed on rats. A femoral artery of the rat was cannulated with PESO tubes. Then, sorafenib suspension, and sorafenib and bentonite composite suspension as produced according to Present Example 7 were orally administered into the rat. Thereafter, the rat blood was collected through the PESO tube based on a time schedule and was centrifuged to obtain plasma. After the plasma samples were pretreated, the in-blood drug concentration was analyzed using a mass spectrometer. The dose was set to 10 mg/kg based on the amount of the sorafenib. The plasma was collected over 2 days.
FIG. 7 is a graph showing changes in concentration of a drug in a blood over time in oral administration of sorafenib suspension (●) and sorafenib and bentonite composite suspension (□).

In the case of `CNC(=O)c1cc(Oc2ccc(NC(=O)Nc3ccc(Cl)c(C(F)(F)F)c3)cc2)ccn1` [Sorafenib, sorafenib], the In vivo half-life ([1]; background statement) is listed as 24 to 48 h, the “amount of the drug taken excreted in feces” value ([1]; oral, during about a week until steady-state) is listed as “More than 70%” and the “released amount of the sorafenib” value ([2]; 50 mM phosphate buffer pH 7.4, 0.5% (v/v) Tween 80, 37° C., 8 hours) is listed as “below 30%”. The “released amount of the sorafenib” value ([2]; 0.1 N HCl pH 1.2, 0.5% (v/v) Tween 80, 37° C., 8 hours stated for sorafenib alone) was “below 30%”, the solubility [3] was 500 µg/mL (≈ 1080 µM) and the AUC(0-inf) ([4]; plasma) was 4850 ng·h/mL. The Cmax ([4]; plasma) was 100 ± 20 ng/mL, the MRT ([4]; plasma) was 20.5 h and the Tmax ([4]; plasma) was 6.67 h. For the same compound, the half-life ([4]; plasma) was 28.2 ± 6.15 h and the AUC(0-t) ([4]; plasma collected over 2 days) was 3120 ng·h/mL.
